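Method: 48-hour compound exposure of cells in 96-well plates, five concentrations, linear interpolation of endpoints. GI50 marks 50% less growth.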 The source made the active and inactive calls. No stated cut-off is given here; in the data, active = GI50 up to about 1.1 µM and inactive = higher.
What was measured:
Experiment in all cases: inhibition of tumour cell growth, NCI panel, 48 h
[1] = tested on: SR
[2] = tested on: HT-29
[3] = tested on: SK-MEL-2
[4] = tested on: BT-549
[5] = tested on: SN12C
[6] = tested on: SK-OV-3
[7] = tested on: PC-3
[8] = tested on: EKVX
[9] = tested on: DU-145
[10] = tested on: MDA-MB-435
[11] = tested on: SF-268
[12] = tested on: OVCAR-8
[13] = tested on: NCI-H23
[14] = tested on: SK-MEL-28
[15] = tested on: NCI/ADR-RES
[16] = tested on: MCF7
[17] = tested on: CCRF-CEM
[18] = tested on: ACHN
[19] = tested on: T47D
[20] = tested on: OVCAR-3
[21] = tested on: U-251
[22] = tested on: A498
[23] = tested on: RXF 393
[24] = tested on: HL-60
[25] = tested on: OVCAR-5
[26] = tested on: HCT-116
[27] = tested on: SNB-19
[28] = tested on: NCI-H460
[29] = tested on: HOP-62
[30] = tested on: CAKI-1
[31] = tested on: NCI-H522
[32] = tested on: MDA-MB-231
[33] = tested on: UACC-62
[34] = tested on: K562
[35] = tested on: UO-31
[36] = tested on: M14
[37] = tested on: KM12
[38] = tested on: MDA-N
[39] = tested on: TK-10
[40] = tested on: HCC 2998
[41] = tested on: SF-295
[42] = tested on: Hs-578T
[43] = tested on: RPMI-8226
[44] = tested on: Malme-3M
[45] = tested on: SF-539
[46] = tested on: SK-MEL-5
[47] = tested on: NCI-H226
[48] = tested on: HCT-15
[49] = tested on: SW-620
[50] = tested on: SNB-75
[51] = tested on: LOX IMVI
[52] = tested on: COLO 205
[53] = tested on: 786-0
[54] = tested on: MOLT-4
[55] = tested on: OVCAR-4
[56] = tested on: A549
[57] = tested on: IGROV-1
[58] = tested on: UACC-257
[59] = tested on: HOP-92

Measured: GI50

CC(N/N=C(\S)N1CCCC1)c1cccnn1 (stereo unspecified)
0.443 µM: [48]
inactive: [10] 1.13 µM | [22] 4.91 µM | [31] 2.31 µM | [38] 1.84 µM | [40] 18.5 µM | [42] 9.53 µM | [47] 1.13 µM | [50] 7.52 µM
active: [1] 0.378 µM | [2] 0.426 µM | [3] 0.906 µM | [4] 0.433 µM | [5] 0.778 µM | [6] 0.337 µM | [7] 0.375 µM | [8] 0.294 µM | [9] 0.789 µM | [11] 0.259 µM | [12] 0.342 µM | [13] 0.561 µM | [14] 0.453 µM | [15] 0.48 µM | [16] 0.308 µM | [17] 0.274 µM | [18] 0.391 µM | [19] 0.553 µM | [20] 0.29 µM | [21] 0.358 µM | [23] 0.315 µM | [24] 0.361 µM | [25] 0.318 µM | [26] 0.335 µM | [27] 0.513 µM | [28] 0.306 µM | [29] 0.312 µM | [30] 0.713 µM | [32] 1.03 µM | [33] 0.414 µM | [34] 0.632 µM | [35] 0.741 µM | [36] 0.378 µM | [37] 0.719 µM | [39] 0.54 µM | [41] 0.451 µM | [43] 0.434 µM | [44] 0.849 µM | [45] 0.215 µM | [46] 0.279 µM | [49] 0.579 µM | [51] 0.444 µM | [52] 0.376 µM | [53] 0.452 µM | [54] 0.351 µM | [55] 0.695 µM | [56] 0.342 µM | [57] 0.43 µM | [58] 0.267 µM

CC1CCc2c(c(CC3CC(=O)NC(=O)C3)nn2-c2ccccc2)C1 (stereo unspecified)
inactive: [1] > 100 µM | [2] > 100 µM | [3] > 100 µM | [4] > 100 µM | [5] > 100 µM | [6] > 100 µM | [7] > 100 µM | [8] > 100 µM | [9] > 100 µM | [10] > 100 µM | [11] > 100 µM | [12] 93.8 µM | [13] > 100 µM | [14] > 100 µM | [15] 75.2 µM | [16] > 100 µM | [17] > 100 µM | [18] > 100 µM | [19] > 100 µM | [20] > 100 µM | [21] > 100 µM | [22] > 100 µM | [23] > 100 µM | [24] > 100 µM | [25] > 100 µM | [26] > 100 µM | [27] > 100 µM | [28] 99.1 µM | [29] > 100 µM | [30] > 100 µM | [32] > 100 µM | [33] 76.2 µM | [34] > 100 µM | [35] 55.6 µM | [36] > 100 µM | [37] > 100 µM | [38] > 100 µM | [39] > 100 µM | [59] > 100 µM | [40] > 100 µM | [41] > 100 µM | [42] > 100 µM | [43] 80.5 µM | [44] > 100 µM | [45] > 100 µM | [46] > 100 µM | [47] > 100 µM | [49] > 100 µM | [50] > 100 µM | [51] > 100 µM | [52] > 100 µM | [53] > 100 µM | [54] > 100 µM | [55] > 100 µM | [56] > 100 µM | [57] > 100 µM | [58] > 100 µM
> 100 µM: [48]

COC(=O)/N=[N+](\[O-])C(c1ccc(Cl)cc1)c1ccc(Cl)cc1
30.8 µM: [48]
inactive: [1] 42 µM | [2] 51.6 µM | [3] 34.1 µM | [4] 53.8 µM | [5] 56.1 µM | [6] 83.6 µM | [7] 27.2 µM | [8] 25.2 µM | [9] 29.1 µM | [10] 38.1 µM | [11] 69.5 µM | [12] 36.3 µM | [13] 32 µM | [14] 50.4 µM | [15] 38.2 µM | [16] 33.9 µM | [17] 28.4 µM | [19] 20.8 µM | [20] 57.7 µM | [21] 39.2 µM | [22] 31.8 µM | [23] 27.2 µM | [24] 20.7 µM | [25] 80.9 µM | [26] 23.8 µM | [27] 50.4 µM | [28] 38.9 µM | [30] 10.1 µM | [31] 32.6 µM | [32] 1.75 µM | [33] 36.4 µM | [34] 49.1 µM | [35] 15.5 µM | [36] 31.3 µM | [37] 32.2 µM | [38] 47.5 µM | [39] 36.1 µM | [40] 32 µM | [42] 36.4 µM | [43] 21.9 µM | [44] 51.9 µM | [45] 65.3 µM | [46] 24.7 µM | [47] 21.9 µM | [49] 48.6 µM | [50] 27.9 µM | [51] 15.7 µM | [52] 23.9 µM | [53] 27.1 µM | [54] 39.7 µM | [55] 42.6 µM | [56] 40.1 µM | [57] 40.1 µM | [58] 34.6 µM

— ChEMBL document CHEMBL1201862, “PubChem BioAssay data set” (2004)
